From the NIST ThermoML archive (doi:10.1021/je900545v)
Numbers after ± are expanded uncertainties.

Tests used:
[1] = 298.15 K, 101 kPa, Liquid
[2] = xn = mol fraction of the nth substance listed; details: 298.15 K, 101 kPa, Liquid; for electrical conductivity: DDSJ-308A Conductometer
[3] = refractive index (Na D-line) (dimensionless); xn = mol fraction of the nth substance listed; details: 298.15 K, 101 kPa, Liquid

C=CCn1cc[n+](C)c1.[Cl-] [1-allyl-3-methylimidazolium chloride]
mass density [1]: 1166 ± 2.7 kg/m3
viscosity [1]: 821 ± 310 mPa·s
electrical conductivity ([1]; DDSJ-308A Conductometer): 0.00695 ± 0.00069 S/m

C=CCn1cc[n+](C)c1.[Cl-] [1-allyl-3-methylimidazolium chloride] + O
electrical conductivity ([2]; x1 = 0.000171): 0.0795 ± 0.0079 S/m
electrical conductivity ([2]; x1 = 0.000362): 0.169 ± 0.017 S/m
electrical conductivity ([2]; x1 = 0.000553): 0.258 ± 0.026 S/m
electrical conductivity ([2]; x1 = 0.000754): 0.345 ± 0.035 S/m
electrical conductivity ([2]; x1 = 0.001151): 0.503 ± 0.05 S/m
electrical conductivity ([2]; x1 = 0.001575): 0.665 ± 0.067 S/m
electrical conductivity ([2]; x1 = 0.002478): 0.969 ± 0.097 S/m
electrical conductivity ([2]; x1 = 0.003359): 1.24 ± 0.12 S/m
electrical conductivity ([2]; x1 = 0.004859): 1.65 ± 0.17 S/m
electrical conductivity ([2]; x1 = 0.006386): 2.66 ± 0.27 S/m
electrical conductivity ([2]; x1 = 0.008102): 3.02 ± 0.3 S/m
electrical conductivity ([2]; x1 = 0.009949): 3.29 ± 0.33 S/m
electrical conductivity ([2]; x1 = 0.01179): 3.69 ± 0.37 S/m
electrical conductivity ([2]; x1 = 0.01373): 3.94 ± 0.39 S/m
electrical conductivity ([2]; x1 = 0.01765): 4.65 ± 0.47 S/m
electrical conductivity ([2]; x1 = 0.02156): 5.33 ± 0.53 S/m
electrical conductivity ([2]; x1 = 0.02565): 5.97 ± 0.6 S/m
electrical conductivity ([2]; x1 = 0.02973): 6.23 ± 0.62 S/m
electrical conductivity ([2]; x1 = 0.03394): 7.15 ± 0.72 S/m
electrical conductivity ([2]; x1 = 0.04442): 6.83 ± 0.68 S/m
electrical conductivity ([2]; x1 = 0.05536): 7.66 ± 0.77 S/m
electrical conductivity ([2]; x1 = 0.06646): 7.92 ± 0.79 S/m
electrical conductivity ([2]; x1 = 0.07857): 7.47 ± 0.75 S/m
electrical conductivity ([2]; x1 = 0.09138): 7.2 ± 0.72 S/m
electrical conductivity ([2]; x1 = 0.1143): 6.48 ± 0.65 S/m
electrical conductivity ([2]; x1 = 0.1369): 5.67 ± 0.57 S/m
electrical conductivity ([2]; x1 = 0.1616): 4.92 ± 0.49 S/m
electrical conductivity ([2]; x1 = 0.1867): 4.13 ± 0.41 S/m
electrical conductivity ([2]; x1 = 0.211): 3.91 ± 0.39 S/m
electrical conductivity ([2]; x1 = 0.2245): 3.82 ± 0.38 S/m
electrical conductivity ([2]; x1 = 0.3233): 2.63 ± 0.26 S/m
electrical conductivity ([2]; x1 = 0.5083): 0.00974 ± 0.00097 S/m
electrical conductivity ([2]; x1 = 1): 0.00695 ± 0.00069 S/m
mass density ([2]; x1 = 0.000171): 1005 ± 7.4 kg/m3
viscosity ([2]; x1 = 0.000171): 0.8974 ± 0.049 mPa·s
mass density ([2]; x1 = 0.000362): 1007.5 ± 7.4 kg/m3
viscosity ([2]; x1 = 0.000362): 0.8946 ± 0.049 mPa·s
mass density ([2]; x1 = 0.000553): 1001 ± 7.3 kg/m3
viscosity ([2]; x1 = 0.000553): 0.8979 ± 0.049 mPa·s
mass density ([2]; x1 = 0.000754): 1004.5 ± 7.4 kg/m3
viscosity ([2]; x1 = 0.000754): 0.8954 ± 0.049 mPa·s
mass density ([2]; x1 = 0.001151): 1004 ± 7.4 kg/m3
viscosity ([2]; x1 = 0.001151): 0.9008 ± 0.049 mPa·s
mass density ([2]; x1 = 0.001575): 1004.7 ± 7.4 kg/m3
viscosity ([2]; x1 = 0.001575): 0.9038 ± 0.049 mPa·s
mass density ([2]; x1 = 0.002478): 1003 ± 7.3 kg/m3
viscosity ([2]; x1 = 0.002478): 0.9234 ± 0.05 mPa·s
mass density ([2]; x1 = 0.003359): 1004.2 ± 7.4 kg/m3
viscosity ([2]; x1 = 0.003359): 0.9356 ± 0.051 mPa·s
mass density ([2]; x1 = 0.004859): 1005 ± 7.3 kg/m3
viscosity ([2]; x1 = 0.004859): 0.9802 ± 0.053 mPa·s
mass density ([2]; x1 = 0.006386): 1006 ± 7.3 kg/m3
viscosity ([2]; x1 = 0.006386): 0.9919 ± 0.054 mPa·s
mass density ([2]; x1 = 0.008102): 1007.6 ± 7.4 kg/m3
viscosity ([2]; x1 = 0.008102): 1.043 ± 0.056 mPa·s
mass density ([2]; x1 = 0.009949): 1008.5 ± 7.3 kg/m3
viscosity ([2]; x1 = 0.009949): 1.061 ± 0.057 mPa·s
mass density ([2]; x1 = 0.01179): 1011.6 ± 7.4 kg/m3
viscosity ([2]; x1 = 0.01179): 1.093 ± 0.058 mPa·s
mass density ([2]; x1 = 0.01373): 1016.5 ± 7.4 kg/m3
viscosity ([2]; x1 = 0.01373): 1.129 ± 0.06 mPa·s
mass density ([2]; x1 = 0.01765): 1017.2 ± 7.4 kg/m3
viscosity ([2]; x1 = 0.01765): 1.193 ± 0.063 mPa·s
mass density ([2]; x1 = 0.02156): 1021.8 ± 7.4 kg/m3
viscosity ([2]; x1 = 0.02156): 1.252 ± 0.066 mPa·s
mass density ([2]; x1 = 0.02565): 1024 ± 7.4 kg/m3
viscosity ([2]; x1 = 0.02565): 1.322 ± 0.069 mPa·s
mass density ([2]; x1 = 0.02973): 1026 ± 7.4 kg/m3
viscosity ([2]; x1 = 0.02973): 1.394 ± 0.073 mPa·s
mass density ([2]; x1 = 0.03394): 1029.2 ± 7.4 kg/m3
viscosity ([2]; x1 = 0.03394): 1.473 ± 0.076 mPa·s
mass density ([2]; x1 = 0.04442): 1040 ± 7.4 kg/m3
viscosity ([2]; x1 = 0.04442): 1.677 ± 0.086 mPa·s
mass density ([2]; x1 = 0.05536): 1046.8 ± 7.4 kg/m3
viscosity ([2]; x1 = 0.05536): 1.9 ± 0.097 mPa·s
mass density ([2]; x1 = 0.06646): 1054.2 ± 7.4 kg/m3
viscosity ([2]; x1 = 0.06646): 2.166 ± 0.11 mPa·s
mass density ([2]; x1 = 0.07857): 1061.8 ± 7.4 kg/m3
viscosity ([2]; x1 = 0.07857): 2.475 ± 0.12 mPa·s
mass density ([2]; x1 = 0.09138): 1073 ± 7.4 kg/m3
viscosity ([2]; x1 = 0.09138): 3.118 ± 0.15 mPa·s
mass density ([2]; x1 = 0.1143): 1084.1 ± 7.3 kg/m3
viscosity ([2]; x1 = 0.1143): 3.867 ± 0.19 mPa·s
mass density ([2]; x1 = 0.1369): 1092 ± 7.2 kg/m3
viscosity ([2]; x1 = 0.1369): 4.806 ± 0.23 mPa·s
mass density ([2]; x1 = 0.1616): 1100 ± 7.1 kg/m3
viscosity ([2]; x1 = 0.1616): 5.974 ± 0.28 mPa·s
mass density ([2]; x1 = 0.1867): 1105.8 ± 6.9 kg/m3
viscosity ([2]; x1 = 0.1867): 7.441 ± 0.33 mPa·s
mass density ([2]; x1 = 0.211): 1110.2 ± 6.7 kg/m3
viscosity ([2]; x1 = 0.211): 7.9 ± 0.35 mPa·s
mass density ([2]; x1 = 0.2245): 1108.9 ± 6.6 kg/m3
viscosity ([2]; x1 = 0.2245): 8.518 ± 0.37 mPa·s
mass density ([2]; x1 = 0.3233): 1127.8 ± 5.9 kg/m3
viscosity ([2]; x1 = 0.3233): 18 ± 0.72 mPa·s
mass density ([2]; x1 = 0.5083): 1132.8 ± 4.6 kg/m3
viscosity ([2]; x1 = 0.5083): 48 ± 2 mPa·s
mass density ([2]; x1 = 1): 1166 ± 2.7 kg/m3
viscosity ([2]; x1 = 1): 821 ± 310 mPa·s
refractive index ([3]; x1 = 0.000171): 1.3329 ± 0.0051
refractive index ([3]; x1 = 0.000362): 1.333 ± 0.0051
refractive index ([3]; x1 = 0.000553): 1.3333 ± 0.0051
refractive index ([3]; x1 = 0.000754): 1.3336 ± 0.0051
refractive index ([3]; x1 = 0.001151): 1.334 ± 0.0051
refractive index ([3]; x1 = 0.001575): 1.3346 ± 0.0051
refractive index ([3]; x1 = 0.002478): 1.336 ± 0.0051
refractive index ([3]; x1 = 0.003359): 1.3375 ± 0.0051
refractive index ([3]; x1 = 0.004859): 1.34 ± 0.0051
refractive index ([3]; x1 = 0.006386): 1.3421 ± 0.0051
refractive index ([3]; x1 = 0.008102): 1.3452 ± 0.0051
refractive index ([3]; x1 = 0.009949): 1.347 ± 0.0051
refractive index ([3]; x1 = 0.01179): 1.3495 ± 0.0051
refractive index ([3]; x1 = 0.01373): 1.352 ± 0.0051
refractive index ([3]; x1 = 0.01765): 1.3574 ± 0.0051
refractive index ([3]; x1 = 0.02156): 1.3635 ± 0.0051
refractive index ([3]; x1 = 0.02565): 1.3676 ± 0.0051
refractive index ([3]; x1 = 0.02973): 1.373 ± 0.0051
refractive index ([3]; x1 = 0.03394): 1.3775 ± 0.0051
refractive index ([3]; x1 = 0.04442): 1.3888 ± 0.0051
refractive index ([3]; x1 = 0.05536): 1.3995 ± 0.005
refractive index ([3]; x1 = 0.06646): 1.4084 ± 0.005
refractive index ([3]; x1 = 0.07857): 1.4176 ± 0.005
refractive index ([3]; x1 = 0.09138): 1.4315 ± 0.005
refractive index ([3]; x1 = 0.1143): 1.4464 ± 0.005
refractive index ([3]; x1 = 0.1369): 1.4574 ± 0.005
refractive index ([3]; x1 = 0.1616): 1.4673 ± 0.005
refractive index ([3]; x1 = 0.1867): 1.4742 ± 0.005
refractive index ([3]; x1 = 0.211): 1.4831 ± 0.005
